# How the values were obtained:
# Type in all cases: in vivo
# [1] = test system: sicklepod (Cassia obtusifolia, CASOB); assay: Post-emerge greenhouse herbicide test, phytotoxicity rating; settings: 14 days after application, scale 0-100
# Procedure, shortened: (§1)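 Scores use a 0 (no damage) to 100 (complete kill) scale, taken 14 days after a foliar spray. Acetone solutions with 0.25% v/v non-ionic surfactant were applied by track sprayer at 187 l/ha and 63-1000 g ai/ha to bottom-watered 2-3 leaf plants.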
# [2] = test system: barnyardgrass (Echinochloa crusgalli, ECHCG); assay: as above; settings: 14 days after application, scale 0-100
# Procedure, shortened: as §1
# [3] = test system: lambsquarters (Chenopodium album, CHEAL); assay: as above; settings: 14 days after application, scale 0-100
# Procedure, shortened: as §1
# [4] = test system: green foxtail (Setaria viridis, SETVI); assay: as above; settings: 14 days after application, scale 0-100
# Procedure, shortened: as §1
# [5] = test system: ivyleaf morningglory (Ipomoea hederacea, IPOHE); assay: as above; settings: 14 days after application, scale 0-100
# Procedure, shortened: as §1
# [6] = test system: velvetleaf (Abutilon theophrasti, ABUTH); assay: as above; settings: 14 days after application, scale 0-100
# Procedure, shortened: as §1
# [7] = test system: Johnsongrass (Sorghum halepense, SORHA); assay: as above; settings: 14 days after application, scale 0-100
# Procedure, shortened: as §1
# [8] = test system: redroot pigweed (Amaranthus retroflexus, AMARE); assay: as above; settings: 14 days after application, scale 0-100
# Procedure, shortened: as §1
# [9] = test system: large crabgrass (Digitaria sanguinalis, DIGSA); assay: as above; settings: 14 days after application, scale 0-100
# Procedure, shortened: as §1
# [10] = test system: upland rice (Oryza sp., var.Tebonnet, RICE); assay: Post-emerge greenhouse test, crop damage rating; settings: 14 days after application, scale 0-100
# Procedure, shortened: as §1
# [11] = test system: field corn (Zea mays L., var. Dekalb 535, CORN); assay: Post-emerge greenhouse test, crop damage rating; settings: 14 days after application, scale 0-100
# Procedure, shortened: as §1
# [12] = test system: common ragweed (Ambrosia artemisiifolia L., AMBEL); assay: Post-emerge greenhouse herbicide test, phytotoxicity rating; settings: 14 days after application, scale 0-100
# Procedure, shortened: as §1
# [13] = test system: soybean (Glycine max L., var. Pella 86, SOY); assay: Post-emerge greenhouse test, crop damage rating; set-up: key to crop damage rating SOY: 0-100 scale: 0 = no damage, 100 = complete death of all plants; settings: 14 days after application, scale 0-100
# Procedure, shortened: as §1
# [14] = test system: upland rice (Oryza sp., var.Tebonnet, RICE); assay: Pre-emerge greenhouse test, crop damage rating; settings: 14 days after application, rating scale 0-100
# Procedure, shortened: (§2)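 Visual 0–100 injury rating (100 = all plants dead) taken 14 days after treatment. Rates of 125–1000 g ai/ha in acetone, 187 l/ha, were sprayed onto soil one day post-sowing; pots were surface-watered to incorporate, then bottom-watered.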
# [15] = test system: field corn (Zea mays L., var. Dekalb 535, CORN); assay: Pre-emerge greenhouse test, crop damage rating; settings: 14 days after application, rating scale 0-100
# Procedure, shortened: as §2
# [16] = test system: sicklepod (Cassia obtusifolia, CASOB); assay: Pre-emerge greenhouse herbicide test, phytotoxicity rating; settings: 14 days after application, rating scale 0-100
# Procedure, shortened: as §2
# [17] = test system: barnyardgrass (Echinochloa crusgalli, ECHCG); assay: as above; settings: 14 days after application, rating scale 0-100
# Procedure, shortened: as §2
# [18] = test system: lambsquarters (Chenopodium album, CHEAL); assay: as above; settings: 14 days after application, rating scale 0-100
# Procedure, shortened: as §2
# [19] = test system: green foxtail (Setaria viridis, SETVI); assay: as above; settings: 14 days after application, rating scale 0-100
# Procedure, shortened: as §2
# [20] = test system: ivyleaf morningglory (Ipomoea hederacea, IPOHE); assay: as above; settings: 14 days after application, rating scale 0-100
# Procedure, shortened: as §2
# [21] = test system: velvetleaf (Abutilon theophrasti, ABUTH); assay: as above; settings: 14 days after application, rating scale 0-100
# Procedure, shortened: as §2
# [22] = test system: Johnsongrass (Sorghum halepense, SORHA); assay: as above; settings: 14 days after application, rating scale 0-100
# Procedure, shortened: as §2
# [23] = test system: redroot pigweed (Amaranthus retroflexus, AMARE); assay: as above; settings: 14 days after application, rating scale 0-100
# Procedure, shortened: as §2
# [24] = test system: large crabgrass (Digitaria sanguinalis, DIGSA); assay: as above; settings: 14 days after application, rating scale 0-100
# Procedure, shortened: as §2
# [25] = test system: common ragweed (Ambrosia artemisiifolia L., AMBEL); assay: as above; settings: 14 days after application, rating scale 0-100
# Procedure, shortened: as §2
# [26] = test system: soybean (Glycine max L., var. Pella 86, SOY); assay: Pre-emerge greenhouse test, crop damage rating; set-up: key to SOY crop damage rating: 0 = no damage, 100 = complete death of all plants; settings: 14 days after application, rating scale 0-100
# Procedure, shortened: as §2
smiles,measurement,setting,value
O=c1n(-c2cc(Oc3nccc(Cl)n3)c(Cl)cc2F)c(=S)n2n1CCCC2 [Compound 8-31],phytotoxicity rating CASOB,[1]; rate 63 g ai/ha,0
same,phytotoxicity rating CASOB,[1]; rate 500 g ai/ha,80
same,phytotoxicity rating ECHCG,[2]; rate 63 g ai/ha,0
same,phytotoxicity rating ECHCG,[2]; rate 500 g ai/ha,20
same,phytotoxicity rating CHEAL,[3]; rate 63 g ai/ha,90
same,phytotoxicity rating CHEAL,[3]; rate 500 g ai/ha,95
same,phytotoxicity rating SETVI,[4]; rate 63 g ai/ha,10
same,phytotoxicity rating SETVI,[4]; rate 500 g ai/ha,40
same,phytotoxicity rating IPOHE,[5]; rate 63 g ai/ha,80
same,phytotoxicity rating IPOHE,[5]; rate 500 g ai/ha,80
same,phytotoxicity rating ABUTH,[6]; rate 63 g ai/ha,70
same,phytotoxicity rating ABUTH,[6]; rate 500 g ai/ha,100
same,phytotoxicity rating SORHA,[7]; rate 63 g ai/ha,0
same,phytotoxicity rating SORHA,[7]; rate 500 g ai/ha,30
same,phytotoxicity rating AMARE,[8]; rate 63 g ai/ha,70
same,phytotoxicity rating AMARE,[8]; rate 500 g ai/ha,100
same,phytotoxicity rating DIGSA,[9]; rate 63 g ai/ha,0
same,phytotoxicity rating DIGSA,[9]; rate 500 g ai/ha,50
same,crop damage rating RICE,[10]; rate 63 g ai/ha,0
same,crop damage rating RICE,[10]; rate 500 g ai/ha,5
same,crop damage rating CORN,[11]; rate 63 g ai/ha,5
same,crop damage rating CORN,[11]; rate 500 g ai/ha,10
same,phytotoxicity rating AMBEL,[12]; rate 63 g ai/ha,50
same,phytotoxicity rating AMBEL,[12]; rate 500 g ai/ha,95
same,crop damage rating SOY,[13]; rate 63 g ai/ha,70
same,crop damage rating SOY,[13]; rate 500 g ai/ha,70
same,RICE crop damage rating,[14]; Rate 125 g al/ha,0
same,RICE crop damage rating,[14]; Rate 500 g al/ha,10
same,CORN crop damage rating,[15]; Rate 125 g al/ha,0
same,CORN crop damage rating,[15]; Rate 500 g al/ha,0
same,CASOB phytotoxicity rating,[16]; Rate 125 g al/ha,30
same,CASOB phytotoxicity rating,[16]; Rate 500 g al/ha,90
same,ECHCG phytotoxicity rating,[17]; Rate 125 g al/ha,0
same,ECHCG phytotoxicity rating,[17]; Rate 500 g al/ha,20
same,CHEAL phytotoxicity rating,[18]; Rate 125 g al/ha,90
same,CHEAL phytotoxicity rating,[18]; Rate 500 g al/ha,100
same,SETVI phytotoxicity rating,[19]; Rate 125 g al/ha,0
same,SETVI phytotoxicity rating,[19]; Rate 500 g al/ha,90
same,IPOHE phytotoxicity rating,[20]; Rate 125 g al/ha,0
same,IPOHE phytotoxicity rating,[20]; Rate 500 g al/ha,70
same,ABUTH phytotoxicity rating,[21]; Rate 125 g al/ha,100
same,ABUTH phytotoxicity rating,[21]; Rate 500 g al/ha,100
same,SORHA phytotoxicity rating,[22]; Rate 125 g al/ha,0
same,SORHA phytotoxicity rating,[22]; Rate 500 g al/ha,20
same,AMARE phytotoxicity rating,[23]; Rate 125 g al/ha,100
same,AMARE phytotoxicity rating,[23]; Rate 500 g al/ha,100
same,DIGSA phytotoxicity rating,[24]; Rate 125 g al/ha,0
same,DIGSA phytotoxicity rating,[24]; Rate 500 g al/ha,70
same,AMBEL phytotoxicity rating,[25]; Rate 125 g al/ha,30
same,AMBEL phytotoxicity rating,[25]; Rate 500 g al/ha,0
same,SOY crop damage rating,[26]; Rate 125 g al/ha,40
same,SOY crop damage rating,[26]; Rate 500 g al/ha,0

# From patent US6479435B1, “Diaryl ethers and processes for their preparation and herbicidal and desiccant compositions containing them” (ISK Americas Incorporated, priority 1997, dated 2002)
